According to US6942979B1, “Method for screening substances capable of modulating the activity of a TRAAK potassium channel” (Centre National de la Recherche Scientifique-CNRS, priority 1998, dated 2005):
Values belong to the molecule of their own block, whether it stands above or below them.

Experiments:
Assay type in all cases: cell-based
TRAAK channel [1] = molecular target: T1, TRAAK channel (Mus musculus, UniProt O88454); assay: TRAAK currents in Xenopus oocytes injected with TRAAK cRNA, imposed voltage technique
T1 construct: an open reading phase of 1197 nucleotides coding for a polypeptide of 398 residues; expressed in transfected cells; host or cells: COS cells (transient)
T1 sequence (O88454 1-398): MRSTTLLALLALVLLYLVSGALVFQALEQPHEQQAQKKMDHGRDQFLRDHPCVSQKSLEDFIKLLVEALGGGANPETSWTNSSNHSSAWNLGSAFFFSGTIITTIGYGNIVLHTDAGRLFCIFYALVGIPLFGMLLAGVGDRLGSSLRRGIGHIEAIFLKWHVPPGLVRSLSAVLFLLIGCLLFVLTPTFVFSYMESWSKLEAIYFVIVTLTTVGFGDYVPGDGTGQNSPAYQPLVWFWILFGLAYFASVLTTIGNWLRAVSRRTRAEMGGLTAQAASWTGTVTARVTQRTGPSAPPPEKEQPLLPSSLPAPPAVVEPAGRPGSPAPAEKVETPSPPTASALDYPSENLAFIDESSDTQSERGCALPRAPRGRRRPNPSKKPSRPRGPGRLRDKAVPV
Method: In (a): the oocytes were maintained at a potential of −80 mV then the currents were recorded following potential jumps from −150 to +50 mV by increments of 20 mV. The recordings were performed in an external medium containing a K^+ concentration of 2 mM or 74 mM. In (b): current-potential relation was according to the same experimental set-up as in (a). In (c): potential reversal (Erev) of the TRAAK currents were a function of the external K^+ concentration. In (d): currents recorded on COS cells transfected by TRAAK according to the same protocol as in (a). In (e): current-potential relation was according to the same experimental set-up as in (d).
(§1) For the functional study, the coding sequence of TRAAK was inserted in the vector pEXO and a complementary RNA (cRNA) was synthesized from this construction and injected in Xenopus oocytes. For expression in the COS cells, the TRAAK sequence was subcloned in an expression vector under the control of a eukaryote promoter and transfected into the cells. An absent non-inactivating current from the oocytes and the control cells was measured by the imposed voltage technique as represented in FIG. 4. The activation was instantaneous and could not be resolved because it was masked by the capacitive discharge of the current recorded at the beginning of the potential jump. The current-potential relation rectified in the outgoing direction when the external K^+ concentration was equal to 2 mM. Incoming currents were observed when the external K^+ concentration was increased. At all concentrations, the current-potential curves followed the Goldman-Hodgkin-Katz relation. […] The TRAAK channel is selective for potassium. Reversal of the current potential follows the equilibrium potential of K^+ and changing the concentration of K^+ by 10 leads to a change in the potential inversion value conforming to the value predicted by Nernst's equation (48.7±0.7 mV times 10, n=4).

TRAAK channel [2] = molecular target: T1, TRAAK channel; assay: TRAAK currents in transfected COS cells, imposed voltage technique; parameters: increase in the current induced by AA: dose or concentration left out as unconfirmed
Method: as §1, with “The maintenance potential was -80 mV. In FIG. 9b: dose-effect relation ofthe activation” for “For the functional study, the coding sequence”, “by AA is shown. In FIG. 9c: current-potential relations obtained as in FIG. 9a” for “was inserted”, “outside-out configuration are shown. […] In FIG. 9d: a histogram represents the coefficient of augmentation of the currents obtained after application of various fatty acids (10 μM). […] The coefficient of augmentation is indicated in each case. […] The current-potential relations were obtained as in FIG. 9a above” for “vector pEXO”, “after application ofriluzole (100 μM) on the transfected COS cells. […]” for “a complementary RNA (cRNA) was synthesized from this construction and injected in Xenopus oocytes.”

TREK-1 channel [3] = molecular target: T2, TREK-1 channel (Mus musculus, UniProt P97438); assay: TREK-1 currents in transfected COS cells, patch recording; conditions: AA 10 μM applied in the external medium, transfected COS cells
T2 construct: expressed in transfected cells; host or cells: COS cells
T2 sequence (P97438 with tags, fused parts or gaps isoform P97438-2 T63A/R366M): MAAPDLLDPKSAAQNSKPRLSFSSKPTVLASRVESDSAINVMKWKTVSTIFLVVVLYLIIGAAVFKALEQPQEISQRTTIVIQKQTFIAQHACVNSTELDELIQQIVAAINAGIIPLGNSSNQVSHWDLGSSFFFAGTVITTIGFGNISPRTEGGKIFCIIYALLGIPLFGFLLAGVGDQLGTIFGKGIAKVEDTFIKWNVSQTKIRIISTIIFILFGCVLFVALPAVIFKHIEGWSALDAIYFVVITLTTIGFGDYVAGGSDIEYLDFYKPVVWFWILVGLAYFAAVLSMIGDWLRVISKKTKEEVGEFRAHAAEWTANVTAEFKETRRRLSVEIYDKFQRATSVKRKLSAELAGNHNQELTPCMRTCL
Method: (§2) In FIG. 8a: the activity of TREK-1 was recorded in the attached cell configuration. The patch was stimulated by a potential ramp lasting 800 msec every 5 seconds. The currents were measured at 80 mV. The applications of arachidonic acid (AA, 10 μM) are indicated by the horizontal bars. During the experiment, the patch was stimulated by tensions of 50 mmHg (indicated by the arrows). At 9 minutes, the patch was excised in the inside-out configuration. In FIG. 8b: current-potential relations corresponding to the experiment illustrated in FIG. 8a is shown. In FIG. 8c: activity of TREK-1 in the attached cell configuration with 10 μM AA in the pipette can be seen. The potential ramp lasted 800 msec and the currents were measured at 80 mV. In FIG. 8d: single-channel current-potential relations at the moment at which the pipette was placed on the membrane or after 20 minutes and 1 minute after the patch was excised in the inside-out configuration. […] The current was measured at 80 mV. In FIG. 8f: AA had no effect on the TREK-1 current measured in the intact cell when it was in the pipette. The current was measured 30 minutes after the patch was broken (control tracing) by a potential ramp of 800 msec. The current was then measured after an application of AA of 1 minute in the external medium (AA tracing).
(§3) FIGS. 10a and b are graphs showing the effect of riluzole on the TREK-1 and TRAAK […] currents. The current-potential relations were obtained as in FIG. 9a above and after application ofriluzole (100 μM) on the transfected COS cells.

TREK-1 channel [4] = molecular target: T3, TREK-1 channel (Mus musculus, UniProt P97438, R381M/T78A); assay: as above
T3 construct: expressed in transfected cells; host or cells: COS cells
T3 sequence (P97438 with tags, fused parts or gaps isoform P97438-2 T63A/R366M): T2 sequence (P97438 with tags, fused parts or gaps isoform P97438-2 T63A/R366M)
Method: as §2, §3

TWIK-1 channel = molecular target: T4, TWIK-1 channel (Homo sapiens, UniProt O00180); assay: TWIK-1 currents in transfected COS cells before and after AA; conditions: intact cell configuration
T4 construct: expressed in transfected cells; host or cells: COS cells (transient)
T4 sequence (O00180 1-336): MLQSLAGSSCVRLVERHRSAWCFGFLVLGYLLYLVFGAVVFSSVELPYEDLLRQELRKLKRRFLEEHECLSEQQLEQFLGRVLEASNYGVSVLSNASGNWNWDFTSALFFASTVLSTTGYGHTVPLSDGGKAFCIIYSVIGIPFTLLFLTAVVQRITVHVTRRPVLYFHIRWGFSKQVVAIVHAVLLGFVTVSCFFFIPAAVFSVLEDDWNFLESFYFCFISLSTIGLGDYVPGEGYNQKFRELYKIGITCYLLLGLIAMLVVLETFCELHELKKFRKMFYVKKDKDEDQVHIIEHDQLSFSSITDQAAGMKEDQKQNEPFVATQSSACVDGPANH

TASK channel = molecular target: T5, TASK channel (Homo sapiens, UniProt O14649); assay: TASK currents in transfected COS cells before and after AA; conditions: intact cell configuration
T5 construct: expressed in transfected cells; host or cells: COS cells (transient)
T5 sequence (O14649 whole entry): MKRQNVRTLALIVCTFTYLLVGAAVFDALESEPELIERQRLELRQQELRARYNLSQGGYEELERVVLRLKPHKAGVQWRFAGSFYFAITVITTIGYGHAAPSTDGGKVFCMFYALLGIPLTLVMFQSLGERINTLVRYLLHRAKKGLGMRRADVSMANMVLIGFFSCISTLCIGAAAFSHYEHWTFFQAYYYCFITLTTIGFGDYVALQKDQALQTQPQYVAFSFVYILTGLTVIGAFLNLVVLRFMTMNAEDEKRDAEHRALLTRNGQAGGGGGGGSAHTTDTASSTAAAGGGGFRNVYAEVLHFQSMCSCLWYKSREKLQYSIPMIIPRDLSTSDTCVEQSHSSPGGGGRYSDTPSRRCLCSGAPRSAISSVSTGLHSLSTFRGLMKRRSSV

control cells (CD8) = assay: Application of AA on control cells (CD8)
TRAAK channel [5] = molecular target: T1, TRAAK channel; assay: TRAAK currents in transfected COS cells, imposed voltage technique; conditions: concentration of 10 μM
[6] = riluzole 100 μM, transfected COS cells

- activation of the TRAAK channel by AA (TRAAK channel [2]; AA 10 μM (FIG. 9a), transfected COS cells, reversible, concentration dependent): activated
- increase in the current induced by AA (TRAAK channel [2]; AA perfusion with mixture of inhibitors of AA metabolism, at +50 mV, n=3): 6.6±0.5 times
- activation of TREK-1 by AA (TREK-1 channel [3]): activated
- activation of TREK-1 by internal AA (TREK-1 channel [4]; AA in the pipette, intact cell, dialyzed up to 30 minutes): did not activate
- effect of activation by AA on TWIK-1 (TWIK-1 channel): No effects of the same type
- effect of activation by AA on TASK (TASK channel): No effects of the same type
SMILES: CCCCC/C=C\C/C=C\C/C=C\C/C=C\CCCC(=O)O [AA, arachidonic acid]
- effect of AA on control cells (control cells (CD8)): no effect

- activation of the TRAAK channel by fatty acids and derivatives (TRAAK channel [5]): inactive
SMILES: CCCCC/C=C\C/C=C\C/C=C\C/C=C\CCCC(=O)OC [AA-ME]

- activation of the TRAAK channel by fatty acids and derivatives (TRAAK channel [5]): inactive
SMILES: CCCCC/C=C\C/C=C\C/C=C\C/C=C\CCCCO [AA-OH]

- activation of the TRAAK channel by fatty acids and derivatives (TRAAK channel [5]): inactive
SMILES: CCC=CCC=CCC=CCC=CCC=CCC=CCCC(=O)OC [DOHA-ME]

- activation of the TRAAK channel by fatty acids and derivatives (TRAAK channel [5]): activation
SMILES: CC/C=C\C/C=C\C/C=C\C/C=C\C/C=C\C/C=C\CCC(=O)O [docosohexaenoic, docosohexaenoic acid]

- activation of the TRAAK channel by fatty acids and derivatives (TRAAK channel [5]): activation
SMILES: CCCCC/C=C\C/C=C\CCCCCCCC(=O)O [linoleic, linoleic acid]

Further lines, the molecule ahead of its results:

SMILES: Nc1ccncc1 [4-aminopyridine]
- sensitivity of TRAAK to potassium channel blocking agents (TRAAK channel [1]; 1 mM): insensitive

SMILES: Nc1nc2ccc(OC(F)(F)F)cc2s1 [Riluzole, riluzole]
- effect of riluzole on the TRAAK channel (TRAAK channel [2]; [6]): opener
- effect of riluzole on the TREK-1 channel (TREK-1 channel [4]; [6]): opener

SMILES: CCCCCCCCCCCCCCCCCCCC(=O)O [arachidic, arachidic acid]
- activation of the TRAAK channel by fatty acids and derivatives (TRAAK channel [5]): no effect

SMILES: CCCCCCCC/C=C\CCCCCCCC(=O)O [oleic, oleic acid]
- activation of the TRAAK channel by fatty acids and derivatives (TRAAK channel [5]): activation

SMILES: CCCCCCCCCCCCCCCC(=O)O [palmitic, palmitic acid]
- activation of the TRAAK channel by fatty acids and derivatives (TRAAK channel [5]): no effect

SMILES: C=C[C@H]1C[N@@]2CC[C@H]1C[C@H]2[C@H](O)c1ccnc2ccc(OC)cc12 [quinine]
- sensitivity of TRAAK to potassium channel blocking agents (TRAAK channel [1]; 100 mM): insensitive

SMILES: CCCCCCCCCCCCCCCCCC(=O)O [stearic, stearic acid]
- activation of the TRAAK channel by fatty acids and derivatives (TRAAK channel [5]): no effect

SMILES: CC[N+](CC)(CC)CC [tetraethylammonium]
- sensitivity of TRAAK to potassium channel blocking agents (TRAAK channel [1]; 1 mM): insensitive
